Experimental findings from ChEMBL document CHEMBL3044712, “Herbicidal potential of pseudoguaninolide sesquiterpenes on wild oat, Avena fatua L” (Biochem Syst Ecol, 2012) are described below.

The subject of test [1] is Avena fatua. Description: Phytotoxicity against Avena fatua assessed as inhibition of shoot growth as shoot length at 2 mM (reference value: 11.2 +/- 0.35%). It is filed as functional. As to conditions: read-out: GI.
Test [2] relates to Avena fatua. Description: Phytotoxicity against Avena fatua assessed as inhibition of shoot growth as shoot length at 1 mM (reference value: 11.2 +/- 0.35%). It is filed as functional. As to conditions: read-out: GI.
Test [3] deals with Avena fatua. Description: Phytotoxicity against Avena fatua assessed as inhibition of shoot growth as shoot length at 0.5 mM (reference value: 11.2 +/- 0.35%). It is filed as functional. The following applies: read-out: GI.
The subject of test [4] is Avena fatua. Put plainly: Phytotoxicity against Avena fatua assessed as inhibition of shoot growth as shoot length at 0.25 mM (reference value: 11.2 +/- 0.35%). It is filed as functional. The following applies: read-out: GI.
The subject of test [5] is Avena fatua. Put plainly: Phytotoxicity against Avena fatua assessed as inhibition of shoot growth as shoot length at 0.125 mM (reference value: 11.2 +/- 0.35%). Type of test: functional. As to conditions: read-out: GI.
Test [6] relates to Avena fatua. Description: Phytotoxicity against Avena fatua assessed as inhibition of root growth as root length. It is filed as functional, organism-based.
The subject of test [7] is Avena fatua. Description: Phytotoxicity against Avena fatua assessed as inhibition of root growth as root length at 2 mM (reference value: 9.6 +/- 0.36%). Type of test: functional. As to conditions: read-out: GI.
Test [8] concerns Avena fatua. Put plainly: Phytotoxicity against Avena fatua assessed as inhibition of root growth as root length at 1 mM (reference value: 9.6 +/- 0.36%). Type of test: functional. The following applies: read-out: GI.
The subject of test [9] is Avena fatua. Put plainly: Phytotoxicity against Avena fatua assessed as inhibition of root growth as root length at 0.5 mM (reference value: 9.6 +/- 0.36%). It is filed as functional. As to conditions: read-out: GI.
For test [10], the system named is Avena fatua. Put plainly: Phytotoxicity against Avena fatua assessed as inhibition of root growth as root length at 0.25 mM measured after 10 days sowing (reference value: 9.6 +/- 0.36%). Type of test: functional. The following applies: 240 h, read-out: GI.
In test [11] the test system is Avena fatua. Description: Phytotoxicity against Avena fatua assessed as inhibition of root growth as root length at 0.125 mM (reference value: 9.6 +/- 0.36%). Type of test: functional. The following applies: read-out: GI.
Test [12] has as its system Avena fatua. Put plainly: Phytotoxicity against Avena fatua assessed as seed germination at 2 mM measured after 10 days sowing (reference value: 50 +/- 2.89%). Type of test: functional.
Test [13] has as its system Avena fatua. Put plainly: Phytotoxicity against Avena fatua assessed as seed germination at 1 mM measured after 10 days sowing (reference value: 50 +/- 2.89%). It is filed as functional.
Test [14] concerns Avena fatua. Description: Phytotoxicity against Avena fatua assessed as seed germination at 0.5 mM measured after 10 days sowing (reference value: 50 +/- 2.89%). Type of test: functional.
Test [15] has as its system Avena fatua. Description: Phytotoxicity against Avena fatua assessed as seed germination at 0.25 mM measured after 10 days sowing (reference value: 50 +/- 2.89%). Type of test: functional.
Test [16] has as its system Avena fatua. Put plainly: Phytotoxicity against Avena fatua assessed as seed germination at 0.125 mM measured after 10 days sowing (reference value: 50 +/- 2.89%). Type of test: functional.
Test [17] has as its system Avena fatua. Put plainly: Phytotoxicity against Avena fatua assessed as inhibition of shoot growth as shoot length. Type of test: functional, organism-based.

For `C=C1C(=O)O[C@@H]2[C@H]1CC[C@H](C)C1=CCC(=O)[C@]12C` [NEOAMBROSIN], the inhibition of growth at 2000 µM in the test on Avena fatua [1] amounted to 84.8%; in the test with Avena fatua [7], 94.8%. In addition, the figures for the inhibition of growth at 1000 µM in the test on Avena fatua [2] and with Avena fatua [8] were 43.8% and 61.5%, respectively. In addition, the values for the inhibition of growth at 500 µM with Avena fatua [3] and with Avena fatua [9] were 20.5% and 45.6%, respectively. Further, the inhibition of growth at 250 µM in the test on Avena fatua [4] is 10.7%; with Avena fatua [10] it was 40.6%. Further, the inhibition of growth at 125 µM worked out at 2.7% in the test with Avena fatua [5] and 11.5% in the test with Avena fatua [11]. Besides, the EC50 (commonly the midpoint of the concentration-response curve) in the test with Avena fatua [6] is 480 µM; with Avena fatua [17], 960 µM. Moreover, the Activity is reported as 23.3% in the test with Avena fatua [12]; 40% with Avena fatua [13]; 36.7% in the test on Avena fatua [14]; 40% with Avena fatua [15]; 46.7% in the test on Avena fatua [16].

With `C=C(C(=O)O)[C@@H]1CC[C@H](C)[C@@H]2CCC(=O)[C@@]2(C)C1` [DAMCINIC ACID], the inhibition of growth at 2000 µM with Avena fatua [1] was determined as 70.5%; in the test on Avena fatua [7] it was 79.2%. Also, the figures for the inhibition of growth at 1000 µM with Avena fatua [2] and in the test on Avena fatua [8] were 44.6% and 64.6%, respectively. Besides, the results for the inhibition of growth at 500 µM with Avena fatua [3] and in the test on Avena fatua [9] were 29.5% and 50%, respectively. Besides, the inhibition of growth at 250 µM is 6.3% in the test with Avena fatua [4] and 31.3% in the test with Avena fatua [10]. Moreover, the inhibition of growth at 125 µM turned out to be 3.6% in the test with Avena fatua [5] and 4.2% in the test on Avena fatua [11]. In addition, the results for the EC50 in the test with Avena fatua [6] and in the test with Avena fatua [17] were 600 µM and 1090 µM, respectively. Also, the Activity in the test on Avena fatua [12] came out at 28.3%; in the test on Avena fatua [13], 38.3%; with Avena fatua [14], 38.3%; in the test with Avena fatua [15], 40%; with Avena fatua [16], 41.7%.

Take `C=C1C(=O)O[C@@H]2[C@H]1CC[C@H](C)[C@@]1(O)C=CC(=O)[C@@]21C` [HYMENIN]: the inhibition of growth at 2000 µM in the test on Avena fatua [1] came to 80.4%; in the test on Avena fatua [7], 95.6%. Besides, the inhibition of growth at 1000 µM in the test on Avena fatua [2] is 60.7%; in the test with Avena fatua [8], 72.9%. Further, the results for the inhibition of growth at 500 µM with Avena fatua [3] and in the test on Avena fatua [9] were 39.3% and 37.5%, respectively. The inhibition of growth at 250 µM stood at 25% in the test with Avena fatua [4] and 15.6% with Avena fatua [10]. For the same molecule, the inhibition of growth at 125 µM in the test with Avena fatua [5] came out at 10.7%; with Avena fatua [11], 8.3%. In addition, the values for the EC50 in the test with Avena fatua [6] and in the test on Avena fatua [17] were 570 µM and 670 µM, respectively. For the same molecule, the Activity with Avena fatua [12] was found to be 30%; with Avena fatua [13], 30%; with Avena fatua [14], 33.3%; in the test with Avena fatua [15] it was 36.7%; in the test with Avena fatua [16], 38.3%.

Consider `C=C1C(=O)O[C@@H]2[C@H]1CC[C@H](C)[C@@H]1C=CC(=O)[C@@]21C` [AMBROSIN], for which the inhibition of growth at 2000 µM with Avena fatua [1] was 86.6%; in the test on Avena fatua [7] it was 99%. In addition, the figures for the inhibition of growth at 1000 µM with Avena fatua [2] and in the test with Avena fatua [8] were 75.9% and 92.4%, respectively. In addition, the inhibition of growth at 500 µM came to 74.1% in the test with Avena fatua [3] and 85.4% in the test with Avena fatua [9]. For the same molecule, the inhibition of growth at 250 µM was found to be 51.8% in the test on Avena fatua [4] and 57.3% in the test with Avena fatua [10]. Moreover, the inhibition of growth at 125 µM with Avena fatua [5] stood at 19.6%; in the test with Avena fatua [11] it was 22.9%. Besides, the EC50 turned out to be 220 µM in the test with Avena fatua [6] and 300 µM in the test with Avena fatua [17]. The Activity in the test on Avena fatua [12] amounted to 26.7%; with Avena fatua [13] it was 26.7%; in the test with Avena fatua [14] it was 28.3%; with Avena fatua [15] it was 36.7%; with Avena fatua [16], 50%.

Turning to `C=C1C(=O)O[C@@H]2[C@H]1CC[C@H](C)[C@@H]1CCC(=O)[C@@]21C` [DAMSIN], the inhibition of growth at 2000 µM was 83.9% with Avena fatua [1] and 98.2% in the test with Avena fatua [7]. The inhibition of growth at 1000 µM in the test on Avena fatua [2] is 66.1%; in the test with Avena fatua [8], 92.4%. The inhibition of growth at 500 µM with Avena fatua [3] turned out to be 22.3%; with Avena fatua [9], 65.6%. Moreover, the inhibition of growth at 250 µM in the test with Avena fatua [4] was determined as 5.4%; in the test on Avena fatua [10] it was 55.2%. The inhibition of growth at 125 µM in the test with Avena fatua [5] came out at 1.8%; in the test on Avena fatua [11] it was 30.2%. The EC50 in the test with Avena fatua [6] stood at 240 µM; in the test with Avena fatua [17], 830 µM. Further, the Activity was 16.7% in the test on Avena fatua [12]; 26.7% in the test on Avena fatua [13]; 30% with Avena fatua [14]; 35% in the test on Avena fatua [15]; 46.7% in the test on Avena fatua [16].
